Laboratory results published in ChEMBL document CHEMBL1201862, “PubChem BioAssay data set” (2004).
Active and inactive are the calls of the source.

Assays:
[1] = target: Voltage-gated inwardly rectifying potassium channel KCNH2 (Homo sapiens, UniProt Q12809); assay: hERG protection from proarrhythmic block, potency, dose response, cell-based, thallium flux (AID 2121); type: ADME
[2] = target: 26S proteasome non-ATPase regulatory subunit 14 (Homo sapiens, UniProt O00487); assay: inhibition of proteasome subunit RPN11 – biochemical, fluorescence polarization, uHTS hits, confirmation (AID 602368); type: functional
26S proteasome non-ATPase regulatory subunit 14, sequence (O00487 whole entry, the tested form may be a part): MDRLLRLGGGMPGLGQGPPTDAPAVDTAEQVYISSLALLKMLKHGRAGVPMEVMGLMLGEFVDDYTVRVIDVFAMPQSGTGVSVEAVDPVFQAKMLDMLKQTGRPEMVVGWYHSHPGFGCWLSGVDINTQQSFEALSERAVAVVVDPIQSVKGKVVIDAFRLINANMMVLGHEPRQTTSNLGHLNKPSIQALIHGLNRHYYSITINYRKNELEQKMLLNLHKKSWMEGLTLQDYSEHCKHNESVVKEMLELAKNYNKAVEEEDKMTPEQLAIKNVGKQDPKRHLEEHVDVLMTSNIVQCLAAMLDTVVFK

[3] = target: T1, Oxysterols receptor LXR-beta (Homo sapiens, UniProt P55055); assay: LXR agonists, Gal4 luciferase reporter, dose response, counter-screen for ssDAF-12 agonist project, cell-based, luminescence, HEK293, S. stercoralis campaign (AID 720737); type: functional; settings: read-out: IC50 (the source's name)
T1 sequence (P55055 whole entry): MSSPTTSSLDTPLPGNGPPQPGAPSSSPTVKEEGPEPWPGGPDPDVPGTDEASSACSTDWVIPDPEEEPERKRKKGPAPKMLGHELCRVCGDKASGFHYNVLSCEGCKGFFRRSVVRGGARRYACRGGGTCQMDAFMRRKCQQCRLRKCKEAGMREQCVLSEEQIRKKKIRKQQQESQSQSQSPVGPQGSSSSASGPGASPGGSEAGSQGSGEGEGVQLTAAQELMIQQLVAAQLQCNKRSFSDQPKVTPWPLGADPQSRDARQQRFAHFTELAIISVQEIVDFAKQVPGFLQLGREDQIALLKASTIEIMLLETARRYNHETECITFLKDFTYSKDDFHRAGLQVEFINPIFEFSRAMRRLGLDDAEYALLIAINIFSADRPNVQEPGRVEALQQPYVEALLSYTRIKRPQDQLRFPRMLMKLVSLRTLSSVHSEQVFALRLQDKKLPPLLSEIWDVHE

[4] = Luminescence-based cell-based high throughput dose response assay to identify activators of the DAF-12 from the parasite S. stercoralis (ssDAF-12).; type: functional
Prothrombin = Prothrombin (Bos taurus, UniProt P00735); assay: thrombin inhibition, dose response, biochemical, fluorescence polarization, uHTS hits (AID 602369); type: functional
[5] = target: 72 kDa type IV collagenase (Homo sapiens, UniProt P08253); assay: Dose Response validation of uHTS RPN11 inhibitor hits using a MMP-2 Fluorescence assay.; type: functional
72 kDa type IV collagenase, sequence (P08253 whole entry): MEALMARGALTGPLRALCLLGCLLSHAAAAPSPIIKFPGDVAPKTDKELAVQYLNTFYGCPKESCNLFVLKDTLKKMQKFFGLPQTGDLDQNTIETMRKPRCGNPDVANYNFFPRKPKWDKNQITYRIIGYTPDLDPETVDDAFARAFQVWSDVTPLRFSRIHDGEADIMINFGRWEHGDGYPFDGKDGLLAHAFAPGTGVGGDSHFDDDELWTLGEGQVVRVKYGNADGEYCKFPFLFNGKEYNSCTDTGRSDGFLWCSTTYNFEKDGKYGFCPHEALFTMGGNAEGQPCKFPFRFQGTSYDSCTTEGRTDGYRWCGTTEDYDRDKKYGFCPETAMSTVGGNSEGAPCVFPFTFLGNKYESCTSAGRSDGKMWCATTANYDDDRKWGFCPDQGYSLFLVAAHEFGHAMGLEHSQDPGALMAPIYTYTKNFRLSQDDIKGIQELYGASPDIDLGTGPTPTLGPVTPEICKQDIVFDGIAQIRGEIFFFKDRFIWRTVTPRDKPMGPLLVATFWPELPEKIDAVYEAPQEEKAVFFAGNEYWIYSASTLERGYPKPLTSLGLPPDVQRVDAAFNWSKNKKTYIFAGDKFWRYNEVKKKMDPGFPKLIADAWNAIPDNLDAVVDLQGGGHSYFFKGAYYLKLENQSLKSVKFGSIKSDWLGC

[6] = target: T2, Sentrin-specific protease 8 (Homo sapiens, UniProt Q96LD8); assay: SENP8 protease inhibitors, SAR follow-up, biochemical, luminescence (AID 504501); type: functional
T2 sequence (Q96LD8 whole entry): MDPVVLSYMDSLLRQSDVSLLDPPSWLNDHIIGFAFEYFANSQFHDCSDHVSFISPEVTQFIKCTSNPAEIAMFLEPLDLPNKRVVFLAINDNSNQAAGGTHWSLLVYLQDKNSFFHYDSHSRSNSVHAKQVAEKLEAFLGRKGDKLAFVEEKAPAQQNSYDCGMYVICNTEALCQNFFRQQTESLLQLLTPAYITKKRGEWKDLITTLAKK

Caspase-3 = target: T3, Caspase-3 (Homo sapiens, UniProt P42574); assay: SAR Analysis of small molecule inhibitors of Sentrin-specific proteases (SENPs) using a Caspase-3 Selectivity assay. [Related pubchem assays (depositor defined):AID2540, AID2599, AID434973, AID489001]; type: functional
T3 sequence (P42574 whole entry): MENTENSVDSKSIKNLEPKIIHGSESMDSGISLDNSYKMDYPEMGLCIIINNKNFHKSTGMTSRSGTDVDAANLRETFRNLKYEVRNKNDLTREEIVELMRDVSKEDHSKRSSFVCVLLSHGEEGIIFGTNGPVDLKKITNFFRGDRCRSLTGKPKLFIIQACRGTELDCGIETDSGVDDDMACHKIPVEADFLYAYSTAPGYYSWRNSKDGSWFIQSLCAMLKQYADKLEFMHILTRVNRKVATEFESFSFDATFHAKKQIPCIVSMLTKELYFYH

[7] = target: T4, Sentrin-specific protease 6 (Homo sapiens, UniProt Q9GZR1); assay: SAR Analysis of small molecule inhibitors of Sentrin-specific protease 6 (SENP6) using a Luminescent assay. [Related pubchem assays (depositor defined):AID2582, AID2599]; type: functional
T4 sequence (Q9GZR1 whole entry): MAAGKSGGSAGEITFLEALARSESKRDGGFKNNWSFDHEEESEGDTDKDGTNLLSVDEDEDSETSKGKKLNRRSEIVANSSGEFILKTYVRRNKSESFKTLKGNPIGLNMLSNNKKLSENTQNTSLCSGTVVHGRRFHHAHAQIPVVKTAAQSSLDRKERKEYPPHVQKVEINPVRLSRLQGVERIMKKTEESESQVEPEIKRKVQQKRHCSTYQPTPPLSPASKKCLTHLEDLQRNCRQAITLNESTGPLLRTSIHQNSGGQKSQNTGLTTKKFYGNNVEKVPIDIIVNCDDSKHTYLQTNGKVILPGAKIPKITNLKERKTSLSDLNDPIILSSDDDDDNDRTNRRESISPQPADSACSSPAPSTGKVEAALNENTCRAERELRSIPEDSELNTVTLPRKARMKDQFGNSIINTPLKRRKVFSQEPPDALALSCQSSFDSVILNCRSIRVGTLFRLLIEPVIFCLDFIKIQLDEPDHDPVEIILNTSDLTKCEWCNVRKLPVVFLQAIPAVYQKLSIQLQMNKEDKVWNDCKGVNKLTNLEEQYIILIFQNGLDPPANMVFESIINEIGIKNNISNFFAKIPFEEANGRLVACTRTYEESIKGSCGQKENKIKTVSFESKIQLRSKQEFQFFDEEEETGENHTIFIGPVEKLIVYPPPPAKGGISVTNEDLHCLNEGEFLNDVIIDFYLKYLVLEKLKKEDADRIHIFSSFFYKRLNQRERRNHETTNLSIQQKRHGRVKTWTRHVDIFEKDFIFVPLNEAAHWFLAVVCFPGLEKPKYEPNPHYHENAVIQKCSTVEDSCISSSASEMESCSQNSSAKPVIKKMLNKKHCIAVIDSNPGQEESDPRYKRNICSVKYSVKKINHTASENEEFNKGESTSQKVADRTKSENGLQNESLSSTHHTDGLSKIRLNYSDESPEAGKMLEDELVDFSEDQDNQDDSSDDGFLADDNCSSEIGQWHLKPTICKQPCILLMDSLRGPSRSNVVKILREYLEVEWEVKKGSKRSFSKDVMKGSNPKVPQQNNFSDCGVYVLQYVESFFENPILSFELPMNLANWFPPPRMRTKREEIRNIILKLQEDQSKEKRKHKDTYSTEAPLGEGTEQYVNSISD

[8] = target: T5, Sentrin-specific protease 7 (Homo sapiens, UniProt Q9BQF6); assay: SENP7 protease inhibitors, SAR follow-up, biochemical, luminescence (AID 504497); type: functional
T5 sequence (Q9BQF6 whole entry): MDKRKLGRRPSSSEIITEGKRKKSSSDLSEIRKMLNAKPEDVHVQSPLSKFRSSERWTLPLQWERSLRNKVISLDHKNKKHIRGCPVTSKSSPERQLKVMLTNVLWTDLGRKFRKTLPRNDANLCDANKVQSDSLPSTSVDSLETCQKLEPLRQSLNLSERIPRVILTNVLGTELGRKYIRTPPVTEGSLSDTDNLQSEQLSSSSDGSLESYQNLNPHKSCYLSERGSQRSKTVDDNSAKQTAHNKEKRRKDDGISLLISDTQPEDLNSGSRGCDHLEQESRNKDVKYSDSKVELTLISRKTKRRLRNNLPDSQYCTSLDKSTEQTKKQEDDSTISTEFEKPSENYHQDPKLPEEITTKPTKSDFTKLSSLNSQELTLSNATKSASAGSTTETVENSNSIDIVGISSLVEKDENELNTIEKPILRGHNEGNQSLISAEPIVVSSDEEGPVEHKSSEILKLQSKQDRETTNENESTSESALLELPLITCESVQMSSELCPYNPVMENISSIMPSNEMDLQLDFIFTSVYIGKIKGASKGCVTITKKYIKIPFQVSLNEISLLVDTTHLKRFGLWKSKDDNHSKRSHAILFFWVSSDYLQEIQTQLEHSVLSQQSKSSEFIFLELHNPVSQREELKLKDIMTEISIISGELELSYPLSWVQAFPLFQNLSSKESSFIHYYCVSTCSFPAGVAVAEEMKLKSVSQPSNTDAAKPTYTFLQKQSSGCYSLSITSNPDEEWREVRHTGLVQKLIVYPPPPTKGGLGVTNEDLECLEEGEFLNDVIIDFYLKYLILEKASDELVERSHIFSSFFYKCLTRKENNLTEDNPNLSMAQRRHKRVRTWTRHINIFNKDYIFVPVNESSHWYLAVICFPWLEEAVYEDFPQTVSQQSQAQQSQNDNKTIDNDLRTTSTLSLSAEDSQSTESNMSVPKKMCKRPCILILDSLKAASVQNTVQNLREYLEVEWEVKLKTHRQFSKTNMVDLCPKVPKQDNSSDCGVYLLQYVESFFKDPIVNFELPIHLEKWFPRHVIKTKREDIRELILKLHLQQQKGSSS

HEK293 [9] = assay: optical interference in Abeta FP readout, dose response, artefact control for IDE activator project, biochemical, fluorescence polarization (AID 588442); type: functional, cell-based; settings: Homo sapiens
Coagulation factor XII = target: T6, Coagulation factor XII (Homo sapiens, UniProt P00748); type: functional;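 further: activated factor XIIa alpha cleaving a fluorogenic AMC peptide substrate; inhibitor potency from loss of enzyme activity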
T6 sequence (P00748 whole entry): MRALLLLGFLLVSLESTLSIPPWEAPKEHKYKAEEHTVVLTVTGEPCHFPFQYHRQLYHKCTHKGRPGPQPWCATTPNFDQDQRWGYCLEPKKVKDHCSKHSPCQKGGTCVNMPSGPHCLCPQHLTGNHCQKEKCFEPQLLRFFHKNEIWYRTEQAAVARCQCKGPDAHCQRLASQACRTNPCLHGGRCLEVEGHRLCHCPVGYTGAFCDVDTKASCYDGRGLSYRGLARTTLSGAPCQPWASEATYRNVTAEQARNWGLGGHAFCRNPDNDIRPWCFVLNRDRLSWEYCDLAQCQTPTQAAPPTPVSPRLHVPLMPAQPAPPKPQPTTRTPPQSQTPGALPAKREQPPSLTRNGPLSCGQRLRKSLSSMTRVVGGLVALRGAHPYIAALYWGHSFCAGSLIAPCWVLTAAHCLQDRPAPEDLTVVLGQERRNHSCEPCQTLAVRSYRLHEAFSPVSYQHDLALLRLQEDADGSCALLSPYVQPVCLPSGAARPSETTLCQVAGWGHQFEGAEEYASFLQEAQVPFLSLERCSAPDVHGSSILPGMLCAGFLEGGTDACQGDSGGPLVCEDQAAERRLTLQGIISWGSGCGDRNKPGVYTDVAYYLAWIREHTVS

Insulin-degrading enzyme [10] = target: T7, Insulin-degrading enzyme (Homo sapiens, UniProt P14735); assay: activators of recombinant IDE enzyme, dose response, counter-screen for IDE activator project, biochemical, fluorescence polarization (AID 588681)
T7 sequence (P14735 whole entry): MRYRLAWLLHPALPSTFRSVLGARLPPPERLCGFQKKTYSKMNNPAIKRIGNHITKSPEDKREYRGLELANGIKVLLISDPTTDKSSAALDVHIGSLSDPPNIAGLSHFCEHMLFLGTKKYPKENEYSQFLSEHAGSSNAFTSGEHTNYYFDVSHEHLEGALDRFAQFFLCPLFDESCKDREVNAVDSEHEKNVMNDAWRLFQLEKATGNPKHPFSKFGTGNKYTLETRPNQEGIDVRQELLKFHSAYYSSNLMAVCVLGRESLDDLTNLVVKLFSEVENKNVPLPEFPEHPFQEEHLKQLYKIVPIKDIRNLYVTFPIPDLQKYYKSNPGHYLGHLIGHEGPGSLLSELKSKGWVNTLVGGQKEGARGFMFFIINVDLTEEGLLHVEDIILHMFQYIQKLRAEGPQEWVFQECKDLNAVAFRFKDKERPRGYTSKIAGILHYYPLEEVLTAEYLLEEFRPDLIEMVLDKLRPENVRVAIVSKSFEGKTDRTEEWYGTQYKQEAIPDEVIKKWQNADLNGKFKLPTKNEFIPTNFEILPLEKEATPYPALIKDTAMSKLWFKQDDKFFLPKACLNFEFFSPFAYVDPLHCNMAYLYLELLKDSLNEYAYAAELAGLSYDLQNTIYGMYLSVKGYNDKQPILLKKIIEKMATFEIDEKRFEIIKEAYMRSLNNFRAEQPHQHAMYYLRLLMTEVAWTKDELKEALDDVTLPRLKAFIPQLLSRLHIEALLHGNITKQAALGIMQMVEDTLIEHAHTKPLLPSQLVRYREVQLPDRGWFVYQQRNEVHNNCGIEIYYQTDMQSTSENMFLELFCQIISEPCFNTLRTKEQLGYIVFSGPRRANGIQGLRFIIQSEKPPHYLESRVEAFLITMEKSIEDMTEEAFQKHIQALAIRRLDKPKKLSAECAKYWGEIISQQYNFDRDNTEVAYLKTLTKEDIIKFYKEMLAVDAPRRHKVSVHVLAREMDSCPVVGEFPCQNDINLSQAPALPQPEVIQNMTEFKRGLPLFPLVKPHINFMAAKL

Insulin-degrading enzyme [11] = target: T7, Insulin-degrading enzyme; assay: activators of endogenous IDE in HEK cells, dose response, cell-based, fluorescence polarization (AID 588439); type: functional
HEK293 [12] = assay: HEK cell cytotoxicity by LDH release, dose response, cytotoxicity control for IDE activator project, fluorescence, HEK cells (AID 588440); type: functional, cell-based; settings: Homo sapiens;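 further: cytotoxicity by LDH release measuring loss of membrane integrity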
Melanocortin receptor 4 = Melanocortin receptor 4 (Homo sapiens, UniProt P32245); assay: MC4R antagonist potency on cAMP, dose response, cell-based, TR-FRET, biased antagonists (AID 602298); type: functional;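 further: antagonist potency against agonist-stimulated cAMP production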
Melanocortin receptor 4, sequence (P32245 whole entry): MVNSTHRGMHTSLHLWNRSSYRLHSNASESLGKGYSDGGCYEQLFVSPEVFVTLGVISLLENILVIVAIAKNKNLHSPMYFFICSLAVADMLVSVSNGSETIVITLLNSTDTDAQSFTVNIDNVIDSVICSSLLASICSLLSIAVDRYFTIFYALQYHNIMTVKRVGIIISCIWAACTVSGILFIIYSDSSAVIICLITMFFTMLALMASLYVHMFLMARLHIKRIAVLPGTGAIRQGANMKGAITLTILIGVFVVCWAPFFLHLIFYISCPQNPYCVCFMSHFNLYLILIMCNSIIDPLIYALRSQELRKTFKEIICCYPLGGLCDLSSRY

[13] = nonselective inhibitors of cellular cAMP signaling, dose response, counter-screen for MC4R biased antagonist project, cell-based, TR-FRET cAMP detection (AID 602305); type: functional;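 further: U2OS cells stimulated with forskolin near its EC80 as the cAMP inducer; potency is for inhibition of forskolin-stimulated cAMP signaling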

Voltage-gated inwardly rectifying potassium channel KCNH2, sequence (Q12809 whole entry): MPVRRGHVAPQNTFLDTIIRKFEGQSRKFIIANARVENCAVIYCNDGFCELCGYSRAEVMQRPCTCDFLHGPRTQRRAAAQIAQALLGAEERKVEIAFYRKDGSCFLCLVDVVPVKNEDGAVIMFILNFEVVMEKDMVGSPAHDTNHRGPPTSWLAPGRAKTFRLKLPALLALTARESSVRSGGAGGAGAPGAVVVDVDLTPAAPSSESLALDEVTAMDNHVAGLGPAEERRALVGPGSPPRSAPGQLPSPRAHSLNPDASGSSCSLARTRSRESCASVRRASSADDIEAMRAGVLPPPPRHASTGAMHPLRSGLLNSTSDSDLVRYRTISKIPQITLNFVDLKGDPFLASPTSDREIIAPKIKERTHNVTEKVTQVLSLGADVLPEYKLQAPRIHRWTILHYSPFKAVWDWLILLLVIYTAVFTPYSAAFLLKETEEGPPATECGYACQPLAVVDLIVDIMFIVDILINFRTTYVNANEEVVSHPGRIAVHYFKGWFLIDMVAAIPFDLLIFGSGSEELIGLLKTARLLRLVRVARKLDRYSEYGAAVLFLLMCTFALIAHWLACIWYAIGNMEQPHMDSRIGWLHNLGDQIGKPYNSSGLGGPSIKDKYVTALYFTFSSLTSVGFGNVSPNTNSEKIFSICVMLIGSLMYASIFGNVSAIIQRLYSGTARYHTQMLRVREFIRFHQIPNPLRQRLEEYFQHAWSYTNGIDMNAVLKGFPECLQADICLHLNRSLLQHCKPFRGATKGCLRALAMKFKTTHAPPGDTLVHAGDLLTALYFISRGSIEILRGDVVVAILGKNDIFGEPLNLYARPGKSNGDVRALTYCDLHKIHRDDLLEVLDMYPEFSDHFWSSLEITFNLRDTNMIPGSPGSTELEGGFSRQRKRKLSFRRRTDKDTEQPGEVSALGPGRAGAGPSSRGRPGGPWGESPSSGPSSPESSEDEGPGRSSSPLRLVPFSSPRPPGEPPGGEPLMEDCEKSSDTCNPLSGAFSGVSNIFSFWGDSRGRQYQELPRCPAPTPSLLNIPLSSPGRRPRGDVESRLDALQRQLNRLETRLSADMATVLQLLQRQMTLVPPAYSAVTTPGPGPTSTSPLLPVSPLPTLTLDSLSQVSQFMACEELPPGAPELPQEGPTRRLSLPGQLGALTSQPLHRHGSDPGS

SMILES: O=C(CSc1nc2cc(Cl)ccc2s1)c1cc2ccccc2o1
- EC50 [1]: 0.35 µM (active)
- IC50 [2]: 24.5 µM (active)
- EC50 [3]: > 67.5 µM (inactive)
- IC50 [4]: > 67.5 µM (inactive)
- IC50 (Prothrombin): 28.5 µM (active)
- IC50 [5]: 18.8 µM (active)

SMILES: CS(=O)(=O)c1ccc(N/N=C/c2cn(Cc3ccccc3)c3ccccc23)cc1
- IC50 [6]: > 99 µM (inactive)
- IC50 (Caspase-3): > 99 µM (inactive)
- IC50 [7]: > 99 µM (inactive)
- IC50 [8]: > 99 µM (inactive)

SMILES: COc1ccc(C(=O)N/N=C/c2cc3ccccc3nc2O)cc1
- EC50 (HEK293 [9]): > 55.9 µM (inactive)
- IC50 (Coagulation factor XII): > 50 µM (inactive)
- EC50 (Insulin-degrading enzyme [10]): > 54.7 µM (inactive)
- EC50 (Insulin-degrading enzyme [11]): > 54.7 µM (inactive)
- IC50 (HEK293 [12]): > 89.1 µM (inactive)

SMILES: CC(=N)C1=C(O)C2(C)C(=CC1=O)Oc1c(C(C)=O)c(O)c(C)c(O)c12 (configuration not stated)
- IC50 (Melanocortin receptor 4): > 64.6 µM (inactive)
- IC50 [13]: > 64.6 µM (inactive)
